Values of other authors, collected in patent US5691376A, “Substituted biphenyl derivatives” (American Home Products Corporation, priority 1996, dated 1997).

What was measured:
[1] = tested on: murine T-cell; settings: Strauch 1989; cited from earlier work
[2] = tested on: humoral (IgE-like) antibodies; settings: albumin allergic challenge; Martel 1977; cited from earlier work

In the case of `CO[C@H]1C[C@@H]2CC[C@@H](C)[C@@](O)(O2)C(=O)C(=O)N2CCCC[C@H]2C(=O)O[C@H]([C@H](C)C[C@@H]2CC[C@@H](O)[C@H](OC)C2)CC(=O)[C@H](C)/C=C(\C)[C@@H](O)[C@@H](OC)C(=O)[C@H](C)C[C@H](C)/C=C/C=C/C=C/1C` [Rapamycin], the “inhibition of T-cell activation” value [1] is given as “inhibit murine T-cell activation” and the “prevention of formation of humoral (IgE-like) antibodies” value [2] is given as “prevent the formation of humoral (IgE-like) antibodies in response to an albumin allergic challenge”.
